Measured values taken from PubChem BioAssay (NCI).
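Compound exposure: 48 hours, 5 concentrations, 96-well plates. Here, GI50 denotes the concentration required for 50% inhibition of growth. TGI marks complete inhibition of growth.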

What was measured:
Test in all cases: NCI tumour cell line growth inhibition, 48 h
786-0 renal = test system: 786-0 renal
A498 renal = test system: A498 renal
A549 NSCLC = test system: A549 NSCLC
ACHN renal = test system: ACHN renal
BT-549 breast = test system: BT-549 breast
CAKI-1 renal = test system: CAKI-1 renal
CCRF-CEM leukemia = test system: CCRF-CEM leukemia
COLO 205 colon = test system: COLO 205 colon
DU-145 prostate = test system: DU-145 prostate
EKVX NSCLC = test system: EKVX NSCLC
HCC-2998 colon = test system: HCC-2998 colon
HCT-116 colon = test system: HCT-116 colon
HCT-15 colon = test system: HCT-15 colon
HL-60(TB) leukemia = test system: HL-60(TB) leukemia
HOP-62 NSCLC = test system: HOP-62 NSCLC
HOP-92 NSCLC = test system: HOP-92 NSCLC
HS 578T breast = test system: HS 578T breast
HT29 colon = test system: HT29 colon
IGROV1 ovarian = test system: IGROV1 ovarian
K-562 leukemia = test system: K-562 leukemia
KM12 colon = test system: KM12 colon
LOX IMVI melanoma = test system: LOX IMVI melanoma
M14 melanoma = test system: M14 melanoma
MALME-3M melanoma = test system: MALME-3M melanoma
MCF7 breast = test system: MCF7 breast
MDA-MB-231 breast = test system: MDA-MB-231 breast
MDA-MB-435 = test system: MDA-MB-435
MDA-MB-468 breast = test system: MDA-MB-468 breast
MOLT-4 leukemia = test system: MOLT-4 leukemia
NCI-H226 lung = test system: NCI-H226 lung
NCI-H23 lung = test system: NCI-H23 lung
NCI-H460 lung = test system: NCI-H460 lung
NCI-H522 lung = test system: NCI-H522 lung
NCI/ADR-RES ovarian = test system: NCI/ADR-RES ovarian
OVCAR-3 ovarian = test system: OVCAR-3 ovarian
OVCAR-4 ovarian = test system: OVCAR-4 ovarian
OVCAR-5 ovarian = test system: OVCAR-5 ovarian
OVCAR-8 ovarian = test system: OVCAR-8 ovarian
PC-3 prostate = test system: PC-3 prostate
RPMI-8226 leukemia = test system: RPMI-8226 leukemia
RXF 393 renal = test system: RXF 393 renal
SF-268 CNS = test system: SF-268 CNS
SF-295 CNS = test system: SF-295 CNS
SF-539 CNS = test system: SF-539 CNS
SK-MEL-28 melanoma = test system: SK-MEL-28 melanoma
SK-MEL-5 melanoma = test system: SK-MEL-5 melanoma
SK-OV-3 ovarian = test system: SK-OV-3 ovarian
SN12C renal = test system: SN12C renal
SNB-19 CNS = test system: SNB-19 CNS
SNB-75 CNS = test system: SNB-75 CNS
SR leukemia = test system: SR leukemia
SW-620 colon = test system: SW-620 colon
T-47D breast = test system: T-47D breast
TK-10 renal = test system: TK-10 renal
U251 CNS = test system: U251 CNS
UACC-257 melanoma = test system: UACC-257 melanoma
UACC-62 melanoma = test system: UACC-62 melanoma
UO-31 renal = test system: UO-31 renal

**Q.** With `C[C@@H]1CN(c2ccc3ncc(C#Cc4cncc(C(=O)Nc5ccc(CN6CCN(C)CC6)c(C(F)(F)F)c5)c4)n3n2)C[C@@H](C)O1` as the molecule, how does the GI50 (786-0 renal) read?
**A.** 407 nM

**Q.** And the TGI (786-0 renal)?
**A.** 986 nM

**Q.** And the GI50 (A498 renal)?
**A.** 678 nM

**Q.** What about the TGI (A498 renal) of the same molecule?
**A.** 1370 nM

**Q.** What about the GI50 (A549 NSCLC) of the same molecule?
**A.** 340 nM

**Q.** What about the TGI (A549 NSCLC) of the same molecule?
**A.** 938 nM

**Q.** What about the GI50 (ACHN renal) of the same molecule?
**A.** 242 nM

**Q.** And the TGI (ACHN renal)?
**A.** 680 nM

**Q.** What about the GI50 (BT-549 breast) of the same molecule?
**A.** 349 nM

**Q.** And the TGI (BT-549 breast)?
**A.** 1200 nM

**Q.** And the GI50 (CAKI-1 renal)?
**A.** 1370 nM

**Q.** What about the TGI (CAKI-1 renal) of the same molecule?
**A.** 3890 nM

**Q.** What about the GI50 (CCRF-CEM leukemia) of the same molecule?
**A.** 475 nM

**Q.** And the TGI (CCRF-CEM leukemia)?
**A.** 1530 nM

**Q.** And the GI50 (COLO 205 colon)?
**A.** 316 nM

**Q.** What about the TGI (COLO 205 colon) of the same molecule?
**A.** 719 nM

**Q.** And the GI50 (DU-145 prostate)?
**A.** 332 nM

**Q.** And the TGI (DU-145 prostate)?
**A.** 923 nM

**Q.** What about the GI50 (EKVX NSCLC) of the same molecule?
**A.** 227 nM

**Q.** And the TGI (EKVX NSCLC)?
**A.** 654 nM

**Q.** What about the GI50 (HCC-2998 colon) of the same molecule?
**A.** 426 nM

**Q.** And the TGI (HCC-2998 colon)?
**A.** 1010 nM

**Q.** And the GI50 (HCT-116 colon)?
**A.** 270 nM

**Q.** What about the TGI (HCT-116 colon) of the same molecule?
**A.** 790 nM

**Q.** And the GI50 (HCT-15 colon)?
**A.** 286 nM

**Q.** And the TGI (HCT-15 colon)?
**A.** 632 nM

**Q.** And the GI50 (HL-60(TB) leukemia)?
**A.** 421 nM

**Q.** And the TGI (HL-60(TB) leukemia)?
**A.** 1170 nM

**Q.** And the GI50 (HOP-62 NSCLC)?
**A.** 318 nM

**Q.** What about the TGI (HOP-62 NSCLC) of the same molecule?
**A.** 968 nM

**Q.** And the GI50 (HOP-92 NSCLC)?
**A.** 124 nM

**Q.** What about the TGI (HOP-92 NSCLC) of the same molecule?
**A.** 496 nM

**Q.** And the GI50 (HS 578T breast)?
**A.** 166 nM

**Q.** And the TGI (HS 578T breast)?
**A.** 794 nM

**Q.** And the GI50 (HT29 colon)?
**A.** 311 nM

**Q.** And the TGI (HT29 colon)?
**A.** 979 nM

**Q.** And the GI50 (IGROV1 ovarian)?
**A.** 276 nM

**Q.** And the TGI (IGROV1 ovarian)?
**A.** 772 nM

**Q.** And the GI50 (K-562 leukemia)?
**A.** 33.6 nM

**Q.** And the TGI (K-562 leukemia)?
**A.** 2730 nM

**Q.** What about the GI50 (KM12 colon) of the same molecule?
**A.** 11.4 nM

**Q.** What about the TGI (KM12 colon) of the same molecule?
**A.** 534 nM

**Q.** And the GI50 (LOX IMVI melanoma)?
**A.** 222 nM

**Q.** What about the TGI (LOX IMVI melanoma) of the same molecule?
**A.** 468 nM

**Q.** And the GI50 (M14 melanoma)?
**A.** 280 nM

**Q.** And the TGI (M14 melanoma)?
**A.** 771 nM

**Q.** What about the GI50 (MALME-3M melanoma) of the same molecule?
**A.** 276 nM

**Q.** What about the TGI (MALME-3M melanoma) of the same molecule?
**A.** 826 nM

**Q.** What about the GI50 (MCF7 breast) of the same molecule?
**A.** 229 nM

**Q.** What about the TGI (MCF7 breast) of the same molecule?
**A.** 679 nM

**Q.** And the GI50 (MDA-MB-231 breast)?
**A.** 59.5 nM

**Q.** And the TGI (MDA-MB-231 breast)?
**A.** 207 nM

**Q.** What about the GI50 (MDA-MB-435) of the same molecule?
**A.** 281 nM

**Q.** What about the TGI (MDA-MB-435) of the same molecule?
**A.** 833 nM

**Q.** And the GI50 (MDA-MB-468 breast)?
**A.** 216 nM

**Q.** And the TGI (MDA-MB-468 breast)?
**A.** 452 nM

**Q.** And the GI50 (MOLT-4 leukemia)?
**A.** 297 nM

**Q.** What about the TGI (MOLT-4 leukemia) of the same molecule?
**A.** 4090 nM

**Q.** What about the GI50 (NCI-H226 lung) of the same molecule?
**A.** 87.9 nM

**Q.** And the TGI (NCI-H226 lung)?
**A.** 574 nM

**Q.** And the GI50 (NCI-H23 lung)?
**A.** 268 nM

**Q.** And the TGI (NCI-H23 lung)?
**A.** 617 nM

**Q.** And the GI50 (NCI-H460 lung)?
**A.** 379 nM

**Q.** And the TGI (NCI-H460 lung)?
**A.** 1040 nM

**Q.** What about the GI50 (NCI-H522 lung) of the same molecule?
**A.** 261 nM

**Q.** What about the TGI (NCI-H522 lung) of the same molecule?
**A.** 525 nM

**Q.** What about the GI50 (NCI/ADR-RES ovarian) of the same molecule?
**A.** 899 nM

**Q.** What about the TGI (NCI/ADR-RES ovarian) of the same molecule?
**A.** 1850 nM

**Q.** What about the GI50 (OVCAR-3 ovarian) of the same molecule?
**A.** 328 nM

**Q.** And the TGI (OVCAR-3 ovarian)?
**A.** 1130 nM

**Q.** And the GI50 (OVCAR-4 ovarian)?
**A.** 263 nM

**Q.** What about the TGI (OVCAR-4 ovarian) of the same molecule?
**A.** 1240 nM

**Q.** And the GI50 (OVCAR-5 ovarian)?
**A.** 363 nM

**Q.** What about the TGI (OVCAR-5 ovarian) of the same molecule?
**A.** 922 nM

**Q.** What about the GI50 (OVCAR-8 ovarian) of the same molecule?
**A.** 366 nM

**Q.** What about the TGI (OVCAR-8 ovarian) of the same molecule?
**A.** 1050 nM

**Q.** And the GI50 (PC-3 prostate)?
**A.** 507 nM

**Q.** What about the TGI (PC-3 prostate) of the same molecule?
**A.** 1810 nM

**Q.** What about the GI50 (RPMI-8226 leukemia) of the same molecule?
**A.** 507 nM

**Q.** And the TGI (RPMI-8226 leukemia)?
**A.** 2030 nM

**Q.** And the GI50 (RXF 393 renal)?
**A.** 187 nM

**Q.** And the TGI (RXF 393 renal)?
**A.** 432 nM

**Q.** And the GI50 (SF-268 CNS)?
**A.** 299 nM

**Q.** And the TGI (SF-268 CNS)?
**A.** 1130 nM

**Q.** And the GI50 (SF-295 CNS)?
**A.** 332 nM

**Q.** And the TGI (SF-295 CNS)?
**A.** 1010 nM

**Q.** What about the GI50 (SF-539 CNS) of the same molecule?
**A.** 142 nM

**Q.** And the TGI (SF-539 CNS)?
**A.** 382 nM

**Q.** What about the GI50 (SK-MEL-28 melanoma) of the same molecule?
**A.** 520 nM

**Q.** And the TGI (SK-MEL-28 melanoma)?
**A.** 1230 nM

**Q.** And the GI50 (SK-MEL-5 melanoma)?
**A.** 673 nM

**Q.** And the TGI (SK-MEL-5 melanoma)?
**A.** 1370 nM

**Q.** And the GI50 (SK-OV-3 ovarian)?
**A.** 510 nM

**Q.** What about the TGI (SK-OV-3 ovarian) of the same molecule?
**A.** 1570 nM

**Q.** What about the GI50 (SN12C renal) of the same molecule?
**A.** 143 nM

**Q.** And the TGI (SN12C renal)?
**A.** 647 nM

**Q.** What about the GI50 (SNB-19 CNS) of the same molecule?
**A.** 467 nM

**Q.** What about the TGI (SNB-19 CNS) of the same molecule?
**A.** 1260 nM

**Q.** What about the GI50 (SNB-75 CNS) of the same molecule?
**A.** 61.6 nM

**Q.** And the TGI (SNB-75 CNS)?
**A.** 188 nM

**Q.** What about the GI50 (SR leukemia) of the same molecule?
**A.** 499 nM

**Q.** What about the TGI (SR leukemia) of the same molecule?
**A.** 10300 nM

**Q.** And the GI50 (SW-620 colon)?
**A.** 277 nM

**Q.** What about the TGI (SW-620 colon) of the same molecule?
**A.** 768 nM

**Q.** What about the GI50 (T-47D breast) of the same molecule?
**A.** 754 nM

**Q.** And the TGI (T-47D breast)?
**A.** 2220 nM

**Q.** And the GI50 (TK-10 renal)?
**A.** 299 nM

**Q.** And the TGI (TK-10 renal)?
**A.** 727 nM

**Q.** What about the GI50 (U251 CNS) of the same molecule?
**A.** 362 nM

**Q.** And the TGI (U251 CNS)?
**A.** 1010 nM

**Q.** What about the GI50 (UACC-257 melanoma) of the same molecule?
**A.** 737 nM

**Q.** What about the TGI (UACC-257 melanoma) of the same molecule?
**A.** 3510 nM

**Q.** What about the GI50 (UACC-62 melanoma) of the same molecule?
**A.** 310 nM

**Q.** What about the TGI (UACC-62 melanoma) of the same molecule?
**A.** 989 nM

**Q.** And the GI50 (UO-31 renal)?
**A.** 128 nM

**Q.** And the TGI (UO-31 renal)?
**A.** 462 nM
